# Source: patent US20210338645A1, “SOLID DISPERSION OF RIFAMYCIN-NITROIMIDAZOLE COUPLING MOLECULE AND APPLICATION THEREOF” (TenNor Therapeutics Limited, priority 2018, published 2021)
# Like-named read-outs stand apart in the source and are kept apart here.
# What was measured:
# Assay type in all cases: physicochemical
# [1] = Dissolution of spray-dried solid dispersion powder in acetate buffer of pH 4.5 (target 4 mg/mL); conditions: acetate buffer pH 4.5, 37° C.
# Experimental: About 344 mg of prepared solid dispersions are taken and poured into a 40 mL glass bottle; 20 mL of acetate buffer of pH 4.5 (preheated to 37° C.) is used as the dissolution medium (the target concentration of the rifaomycin-nitroimidazole coupling molecule is 4 mg/mL); the glass bottle is sealed; and the above materials are whirled for 5 seconds and placed on a heated magnetic stirrer at 37° C. after a stir bar is inserted. The rotational speed is 300 rpm. After 10 min, 20 min, 40 min, 60 min, 90 min, 120 min and 180 min, 500 μL of the liquid is taken into the centrifuge tube and centrifuged at 14000 rpm for 3 min. The supernatant liquid is taken into the liquid phase bottle and diluted to 10 times with acetonitrile as the solution to be tested, the high performance liquid chromatography is injected and the chromatogram is recorded, and the concentration is calculated by the peak area using the external standard method.
# [2] = Dissolution of binary solid dispersion film in simulated gastric fluid of pH 1.2; conditions: simulated gastric fluid pH 1.2, 25° C.
# Experimental: (§1) Preparation of binary solid dispersion (ASD for short): About 25 mg of rifaomycin-nitroimidazole coupling molecules and about 25 mg of carrier excipient are weighed, and placed into the same 40 mL glass bottle. The open 40 mL glass bottle is covered with perforated aluminum-foil paper to prevent cross contamination and placed into a 35° C. vacuum drying oven for rapid volatilization. After 40 hours of vacuum and full drying, the binary dispersion forms a purple film on the bottom of the bottle to obtain a binary solid dispersion film.
# (§2) The prepared binary solid dispersion film is subjected to dissolution experiments: In the 40 mL glass bottle containing solid dispersion films, 0.5 mL of simulated gastric fluid of pH 1.2 and […] of acetate buffer of pH 4.5 are respectively taken as dissolution media (25° C.) (the target concentration is 50 mg ml), to seal the glass bottle and complete the vortex processing for 5 seconds; 100 μL of liquid is taken as an initial sampling point (0 minute) and then the glass bottle is shaken by a rocking bed; 100 μL of solution is taken into centrifugal tubes respectively after 10 minutes, 30 minutes, and 60 minutes, to perform the centrifugation at a rotational speed of 14000 rpm for 5 minutes; and the supernatant is taken into a small liquid phase bottle and is diluted with the acetonitrile to a suitable multiple, and high-performance liquid chromatograph is taken into the glass bottle, to record a chromatogram map and calculate the concentration according to the peak area by an external standard method.
# [3] = Dissolution of binary solid dispersion film in acetate buffer of pH 4.5; conditions: for Drug Concentration: acetate buffer pH 4.5, 25° C.
# Experimental: as §1, §2
# [4] = Approximate solubility of the coupling molecule in spray drying solvents; conditions: organic solvent or mixture, thermodynamic from solid
# Experimental: In this embodiment, the solvent is firstly screened and determined: the solvent comprises one or a combination of more of methanol, ethanol, acetone, ethyl acetate, tetrahydrofuran and dichloromethane. About 10 mg of rifamycin-nitroimidazole coupling molecules are weighed into a 1.5 mL liquid phase bottle, and appropriate volumes of different solvents are added respectively to observe and judge whether the coupling molecule is completely dissolved and judge approximate solubility of the coupling molecule.
# [5] = Two-hour solubility of API in functional excipient solution; conditions: for Two-hour Dissolution Rate: 37° C.; for increase of two-hour dissolution rate compared to API powder control: pH 4.5 system
# Experimental: In order to further increase the dissolution performance of the rifamycin-nitroimidazole coupling molecule, sodium dodecyl sulfate, meglumine, VE-TPGS or Tween 80 is respectively added in the simulated gastric fluid system of pH=1.2 or the acetate buffer system of pH=4.5, to prepare the dissolution medium containing 3 mg/mL of functional excipient. About 100 mg (or 20 mg) of rifamycin-nitroimidazole coupling molecules are weighed and put into a 1.5 ml high-performance liquid phase bottle, 1 ml of simulated gastric fluid of pH 1.2 (or acetate buffer of pH 4.5) containing functional excipient is added, and the rifamycin-nitroimidazole coupling molecules are put into a constant temperature mixing instrument at 37° C., the rotation speed is 700 rpm, and after 120 minutes, 500 μl of liquid is taken into a centrifuge tube and centrifuged at 14,000 rpm for 5 min. The supernatant liquid is centrifuged again in the same condition, and the supernatant liquid after twice centrifugation is taken into the liquid phase bottle, and diluted to a proper amount of times with acetonitrile as the solution to be tested, a high performance liquid chromatograph is injected to record a chromatogram, and the concentration is calculated by a peak area using an external standard method.
# [6] = as above
# [7] = acetate buffer pH 4.5, Meglumine
# [8] = acetate buffer pH 4.5, no functional excipient
# [9] = simulated gastric fluid pH 1.2, SLS
# [10] = simulated gastric fluid pH 1.2, Tween80
# [11] = simulated gastric fluid pH 1.2, VE-TPGS
# [12] = simulated gastric fluid pH 1.2, no functional excipient
smiles,measurement,setting,value
CO[C@H]1/C=C/O[C@@]2(C)Oc3c(C)c(O)c4c(c3C2=O)C2=NC3(CCN(CCn5c([N+](=O)[O-])cnc5C)CC3)NC2=C(NC(=O)/C(C)=C\C=C\[C@H](C)[C@H](O)[C@@H](C)[C@@H](O)[C@@H](C)[C@H](OC(C)=O)[C@@H]1C)C4=O [API],Phenomenon,[1],Inhomogeneous
same,Drug Concentration,[1]; 10 Min,210 µg/mL
same,Drug Concentration,[1]; 20 Min,170 µg/mL
same,Drug Concentration,[1]; 40 Min,190 µg/mL
same,Drug Concentration,[1]; 60 Min,180 µg/mL
same,Drug Concentration,[1]; 90 Min,180 µg/mL
same,Drug Concentration,[1]; 120 Min,180 µg/mL
same,Drug Concentration,[1]; 180 Min,160 µg/mL
same,pH,[1]; dissolution medium,4.47
same,pH,[2]; dissolution medium,2.0
same,Phenomenon,[2],Clear
same,Drug Concentration,[2]; 0 min,10000 µg/mL
same,Drug Concentration,[2]; 10 min,46400 µg/mL
same,Drug Concentration,[2]; 30 min,54700 µg/mL
same,Drug Concentration,[2]; 60 min,53500 µg/mL
same,Phenomenon,[3]; acetate buffer pH 4.5,"Clear solution, incomplete dissolved film"
same,Drug Concentration,[3]; 0 min,10 µg/mL
same,Drug Concentration,[3]; 10 min,290 µg/mL
same,Drug Concentration,[3]; 30 min,340 µg/mL
same,Drug Concentration,[3]; 60 min,370 µg/mL
same,pH,"[3]; dissolution medium, acetate buffer pH 4.5",4.5
same,solubility,"[4]; acetone, read-out: Approximate Solubility",> 300 mg/mL
same,solubility,"[4]; dichloromethane, read-out: Approximate Solubility",> 300 mg/mL
same,solubility,"[4]; ethanol, read-out: Approximate Solubility",167 to 200 mg/mL
same,solubility,"[4]; ethyl acetate, read-out: Approximate Solubility",167 to 200 mg/mL
same,solubility,"[4]; methanol, read-out: Approximate Solubility",> 300 mg/mL
same,solubility,"[4]; various common spray drying solvents, read-out: Solubility",> 100 mg/mL
same,solubility,"[4]; tetrahydrofuran, read-out: Approximate Solubility",> 200 mg/mL
same,Two-hour Dissolution Rate,"[5]; 20 mg API + 1 mL acetate buffer pH 4.5, Meglumine 3 mg/mL",0.10 mg/mL
same,Two-hour Dissolution Rate,"[5]; 20 mg API + 1 mL acetate buffer pH 4.5, SLS 3 mg/mL",0.06 mg/mL
same,Two-hour Dissolution Rate,"[5]; 20 mg API + 1 mL acetate buffer pH 4.5, Tween80 3 mg/mL",0.61 mg/mL
same,Two-hour Dissolution Rate,"[5]; 20 mg API + 1 mL acetate buffer pH 4.5, VE-TPGS 3 mg/mL",0.84 mg/mL
same,Two-hour Dissolution Rate,"[5]; 20 mg API + 1 mL acetate buffer pH 4.5, no functional excipient",0.15 mg/mL
same,Two-hour Dissolution Rate,"[5]; 100 mg API + 1 mL simulated gastric fluid pH 1.2, SLS 3 mg/mL",6.7 mg/mL
same,Two-hour Dissolution Rate,"[5]; 100 mg API + 1 mL simulated gastric fluid pH 1.2, Tween80 3 mg/mL",11.7 mg/mL
same,Two-hour Dissolution Rate,"[5]; 100 mg API + 1 mL simulated gastric fluid pH 1.2, VE-TPGS 3 mg/mL",11.5 mg/mL
same,Final pH,[5]; [7],4.91
same,Physical Appearance,[5]; [7],Suspension
same,Final pH,"[5]; acetate buffer pH 4.5, SLS",4.65
same,Physical Appearance,"[5]; acetate buffer pH 4.5, SLS",Suspension
same,Final pH,"[5]; acetate buffer pH 4.5, Tween80",4.46
same,Physical Appearance,"[5]; acetate buffer pH 4.5, Tween80",Suspension
same,Final pH,"[5]; acetate buffer pH 4.5, VE-TPGS",4.45
same,Physical Appearance,"[5]; acetate buffer pH 4.5, VE-TPGS",Suspension
same,Final pH,[5]; [8],4.45
same,Physical Appearance,[5]; [8],Suspension
same,increase of two-hour dissolution rate compared to API powder control,[5]; Tween-80,4 times
same,increase of two-hour dissolution rate compared to API powder control,[5]; VE-TPGS,6 times
same,Final pH,[5]; [9],2.72
same,Physical Appearance,[5]; [9],Suspension
same,Final pH,[5]; [10],2.60
same,Physical Appearance,[5]; [10],Suspension
same,Final pH,[5]; [11],2.60
same,Physical Appearance,[5]; [11],Suspension
same,Physical Appearance,[5]; [12],Suspension
same,Two-hour Dissolution Rate,"[6]; 100 mg API + 1 mL simulated gastric fluid pH 1.2, no functional excipient, 37° C.",9.8 mg/mL
same,Final pH,[6]; [12],2.5
